Experiments:
[1] = target: T1, human A3 (hA3) ARs (Homo sapiens, UniProt P0DMS8); assay: Radioligand binding [3H]PSB-11, CHO cell membranes; details: for Ki: CHO cell membranes, read-out: hA3 [3H]PSB-11 Ki ± SEM; for inhibition at 1 µM: read-out: hA3 [3H]PSB-11 % inhibition ± SEM at 1 µM
T1 construct: expressed in transfected cells; host or cells: CHO cells (membranes)
T1 sequence (P0DMS8 1-318): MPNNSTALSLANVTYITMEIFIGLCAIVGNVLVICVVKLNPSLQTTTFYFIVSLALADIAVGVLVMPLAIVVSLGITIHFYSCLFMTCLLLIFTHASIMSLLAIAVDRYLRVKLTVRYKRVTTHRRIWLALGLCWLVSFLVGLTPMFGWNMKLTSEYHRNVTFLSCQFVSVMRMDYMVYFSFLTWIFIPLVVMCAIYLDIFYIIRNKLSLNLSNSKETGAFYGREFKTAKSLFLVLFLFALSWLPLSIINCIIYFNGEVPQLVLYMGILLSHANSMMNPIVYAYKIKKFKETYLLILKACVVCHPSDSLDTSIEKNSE
Method: The final compounds were tested in radioligand binding assays to evaluate their affinity for all four ARs subtypes (see Table 2). Rat brain cortical membrane preparations were used as a source of rat A1 (rA1) ARs, and rat brain striatal membrane preparations served as a source of rat A2A (rA2A) ARs. For A2B- and A3AR assays, membrane preparations of Chinese hamster ovary (CHO) cells recombinantly expressing either human A2B (hA2B) or human A3 (hA3) ARs were employed.
Adenosine receptor radioligand binding assays were performed as previously described using rat brain cortical membrane preparations for A1 and rat brain striatal membrane preparations for A2A AR assays. Frozen rat brains (unstripped) were obtained from Pel Freez, Rogers, AR, USA. For assays at human AR subtypes, cell membranes of CHO cells recombinantly expressing the respective receptor were used. The following compounds were employed as radioligands: A1: [^3H]2-chloro-N^6-cyclopentyladenosine ([^3H]CCPA); A2A: [^3H]3-(3-hydroxypropyl)-7-methyl-8-(m-methoxystyryl)-1-propargylxanthine ([^3H]MSX-2); A2B: [^3H]8-(4-(4-(4-chlorophenyl)piperazine-1-sulfonyl)phenyl)-1-propylxanthine ([^3H]PSB-603); A3: [^3H]phenyl-8-ethyl-4-methyl-(8R)-4,5,7,8-tetrahydro-1H-imidazo[2,1-i]purine-5-one ([^3H]PSB-11). Initially, a single high concentration of compound was tested (1 µM). For potent compounds, full concentration–inhibition curves were determined using six to ten different concentrations of test compound spanning three orders of magnitude. At least three independent experiments were performed. Data were analyzed using GraphPad PRISM program version 4.0 or higher (Graph Pad, San Diego, CA, USA).

[2] = target: T2, human PDE10A1 (Homo sapiens, UniProt Q9Y233); assay: PDElight HTS cAMP phosphodiesterase assay, PDE10A1; assay type: biochemical; details: for IC50: read-out: PDE 10A1 IC50 ± SEM; for inhibition at 10 µM: read-out: PDE 10A1 % Inhibition ± SEM at 10 µM
T2 construct: purchased BPS Biosciences
Method: Further biological evaluation of the presented compound library was performed determining inhibitory potencies against selected human PDE isoforms, namely, PDE4 and PDE10 (for results see Table 3).
Tested and reference compounds were dissolved in dimethyl sulfoxide (DMSO) at a concentration of 10 mM and further diluted in assay buffer (10 mM Tris-HCl, 10 mM magnesium chloride and 0.05% Tween-20; pH 7.4). Inhibition of human PDE10A and 4B1 was measured using PDElight HTS cAMP phosphodiesterase assay kit (Lonza, Basel, Switzerland) according to manufacturer’s recommendations. Then, 10 ng of PDE10A and 5 ng of PDE4B1 (BPS Biosciences, San Diego, CA, USA) in appropriate buffer was incubated with reference and tested compound for 20 min. […] Then PDELight AMP Detection Reagent was added and incubated 10 min. All reactions were carried out at 37 °C in 96 white-walled, half-area-well plates (PerkinElmer). Luminescence was measured in a multifunction plate reader (POLARstar Omega, BMG Labtech, Ortenberg, Germany). The percentage of inhibition and IC50s were computed using GraphPad Prism Version 6.0 software.

[3] = DPPH antioxidant assay; assay type: physicochemical; details: compound at 50 µM
From the text: The 2,2-diphenyl-1-picrylhydrazyl (DPPH) assay was used to determine the antioxidant properties of selected compounds using ascorbic acid, trolox, and quercetin as references. […] From a structural point of view, 21 and 22 share a common pyrimido[2,1-f]purinedione core with propyl or butyl substituents at the N1- and N3-position. Compounds 11i and 11l, containing hexyl or phenoxyethyl as N7-substituents, were the only structures in the groups of bicyclic xanthine derivatives that lacked antioxidant activity in the DPPH assay.
Antioxidant properties of considered structures were evaluated in DPPH test. The assay utilizes a stable free radical 2,2-diphenyl-1-picrylhydrazyl (DPPH). DPPH has a deep violet color in solution and strong absorption band at 520 nm. The antioxidant activity of the tested compounds was defined by their ability to induce the formation of the reduced form of DPPH. Upon reduction, DPPH color turned pale yellow, which manifested by decreased sample absorption at 520 nm and was measured in conducted experiments using EnSpire microplate reader (PerkinElmer). Antioxidant activity of xanthine derivatives and reference compounds was tested in triplicate at 50 µM concentration and normalized to the activity of reference radical scavenger—quercetin.
Figure 2 Antioxidant properties of xanthine derivatives evaluated in the DPPH test. All compounds were tested at 50 µM concentration. Results were normalized to the antioxidant activity measured for quercetin. ASC, ascorbic acid; TLX, trolox; QCT, quercetin.

T2 sequence (Q9Y233 1-779 isoform Q9Y233-1): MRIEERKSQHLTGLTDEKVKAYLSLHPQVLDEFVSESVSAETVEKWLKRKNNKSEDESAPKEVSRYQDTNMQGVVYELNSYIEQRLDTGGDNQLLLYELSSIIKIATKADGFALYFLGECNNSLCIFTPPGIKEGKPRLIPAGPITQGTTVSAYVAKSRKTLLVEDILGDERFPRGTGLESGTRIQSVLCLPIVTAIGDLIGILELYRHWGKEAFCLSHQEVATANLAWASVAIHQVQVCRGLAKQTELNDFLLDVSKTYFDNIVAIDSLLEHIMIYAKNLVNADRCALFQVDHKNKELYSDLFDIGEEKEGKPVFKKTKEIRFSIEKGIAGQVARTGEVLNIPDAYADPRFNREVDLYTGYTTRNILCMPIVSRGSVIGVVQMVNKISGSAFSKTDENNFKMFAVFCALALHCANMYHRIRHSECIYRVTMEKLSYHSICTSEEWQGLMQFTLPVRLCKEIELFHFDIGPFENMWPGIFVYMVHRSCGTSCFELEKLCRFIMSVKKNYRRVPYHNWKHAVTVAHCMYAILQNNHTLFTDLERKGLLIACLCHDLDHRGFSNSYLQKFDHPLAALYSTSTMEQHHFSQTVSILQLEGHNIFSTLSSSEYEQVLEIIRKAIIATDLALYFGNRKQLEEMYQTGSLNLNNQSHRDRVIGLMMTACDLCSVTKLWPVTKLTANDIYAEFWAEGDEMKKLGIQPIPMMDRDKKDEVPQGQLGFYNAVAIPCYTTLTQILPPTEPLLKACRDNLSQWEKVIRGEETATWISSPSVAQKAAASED

SMILES | Ki [1] [µM] | inhibition at 1 µM [1] [%] | IC50 [2] [µM] | Antioxidative Activity [% of Quercetin Response at 50 µM ± SD] [3] | melting point [°C] | inhibition at 10 µM [2] [%]
Cn1c(=O)c2c(nc3n2CCCCN3CCc2ccc(O)c(O)c2)n(C)c1=O [Compound 20b, 10-(3,4-Dihydroxyphenethyl)-1,3-dimethyl-7,8,9,10-tetrahydro-1H-[1, 3]diazepino[2,1-f]purine-2,4(3H,6H)-dione] | > 1 | -2 | 30.7 ± 0.2 | 79 ± 1 % of Quercetin Response | 232 to 235 | –
CCCCn1c(=O)c2c(nc(NCCc3ccc(O)c(O)c3)n2CCC)n(CCCC)c1=O [Compound 13, 1,3-Dibutyl-8-((3,4-dihydroxyphenethyl)amino)-7-propyl-3,7-dihydro-1H-purine-2,6-dione] | > 1 | 17 | > 10 | 61 ± 1 % of Quercetin Response | – | 26
CCCCn1c(NCCc2ccc(O)c(O)c2)nc2c1c(=O)n(C)c(=O)n2C [Compound 11e, 7-Butyl-8-((3,4-dihydroxyphenethyl)amino)-1,3-dimethyl-3,7-dihydro-1H-purine-2,6-dione] | > 1 | 0 | 3.77 ± 1.29 | 75 ± 1 % of Quercetin Response | – | –
CCn1c(NCCc2ccc(O)c(O)c2)nc2c1c(=O)n(C)c(=O)n2C [Compound 11b, 8-((3,4-Dihydroxyphenethyl)amino)-7-ethyl-1,3-dimethyl-3,7-dihydro-1H-purine-2,6-dione] | > 1 | -5 | 4.63 ± 1.25 | 75 ± 1 % of Quercetin Response | 225 to 226 | –
CCCCn1c(=O)c2c(nc3n2CCCN3CCc2ccc(O)c(O)c2)n(CCCC)c1=O [Compound 22, 1,3-Dibutyl-9-(3,4-dihydroxyphenethyl)-6,7,8,9-tetrahydropyrimido[2,1-f]purine-2,4(1H,3H)-dione] | 0.676 ± 0.143 | – | > 10 | 26 ± 2 % of Quercetin Response | – | 25
Cn1c(=O)c2c(nc(NCCc3ccc(O)c(O)c3)n2C)n(C)c1=O [Compound 11a, 8-((3,4-Dihydroxyphenethyl)amino)-1,3,7-trimethyl-3,7-dihydro-1H-purine-2,6-dione] | > 1 | -1 | 15.1 ± 3.1 | 79 ± 1 % of Quercetin Response | 204 to 206 | –
CCCCCn1c(NCCc2ccc(O)c(O)c2)nc2c1c(=O)n(C)c(=O)n2C [Compound 11h, 8-((3,4-Dihydroxyphenethyl)amino)-1,3-dimethyl-7-pentyl-3,7-dihydro-1H-purine-2,6-dione] | > 1 | 0 | ≥ 10 | 79 ± 1 % of Quercetin Response | – | 51
CCCn1c(=O)c2c(nc(NCCc3ccc(O)c(O)c3)n2CCC)n(CCC)c1=O [Compound 12, 8-((3,4-Dihydroxyphenethyl)amino)-1,3,7-tripropyl-3,7-dihydro-1H-purine-2,6-dione] | > 1 | 25 | 2.73 ± 0.03 | 86 ± 3 % of Quercetin Response | – | –
CCCn1c(=O)c2c(nc3n2CCCN3CCc2ccc(O)c(O)c2)n(CCC)c1=O [Compound 21, 9-(3,4-Dihydroxyphenethyl)-1,3-dipropyl-6,7,8,9-tetrahydropyrimido[2,1-f]purine-2,4(1H,3H)-dione] | > 1 | 26 | 31 ± 0.1 | 13 ± 1 % of Quercetin Response | – | –
Cn1c(=O)c2c(nc(NCCc3ccc(O)c(O)c3)n2Cc2ccccc2)n(C)c1=O [Compound 11j, 7-Benzyl-8-((3,4-dihydroxyphenethyl)amino)-1,3-dimethyl-3,7-dihydro-1H-purine-2,6-dione] | > 1 | 7 | ≥ 10 | 82 ± 1 % of Quercetin Response | – | 36
CC(C)Cn1c(NCCc2ccc(O)c(O)c2)nc2c1c(=O)n(C)c(=O)n2C [Compound 11f, 8-((3,4-Dihydroxyphenethyl)amino)-7-isobutyl-1,3-dimethyl-3,7-dihydro-1H-purine-2,6-dione] | > 1 | -6 | – | 57 ± 1 % of Quercetin Response | – | 59
Cn1c(=O)c2c(nc(NCCc3ccc(O)c(O)c3)n2CCOc2ccccc2)n(C)c1=O [Compound 11l, 8-((3,4-Dihydroxyphenethyl)amino)-1,3-dimethyl-7-(2-phenoxyethyl)-3,7-dihydro-1H-purine-2,6-dione] | > 1 | -2 | > 10 | 26 ± 3 % of Quercetin Response | 218 to 220 | 17
CCCn1c(NCCc2ccc(O)c(O)c2)nc2c1c(=O)n(C)c(=O)n2C [Compound 11c, 8-((3,4-Dihydroxyphenethyl)amino)-1,3-dimethyl-7-propyl-3,7-dihydro-1H-purine-2,6-dione] | > 1 | 5 | 3.45 ± 0.27 | 69 ± 1 % of Quercetin Response | – | –
CC(C)n1c(NCCc2ccc(O)c(O)c2)nc2c1c(=O)n(C)c(=O)n2C [Compound 11d, 8-((3,4-Dihydroxyphenethyl)amino)-7-isopropyl-1,3-dimethyl-3,7-dihydro-1H-purine-2,6-dione] | > 1 | 12 | 2.3 ± 0.64 | 87 ± 1 % of Quercetin Response | 180 to 182 | –
CCC(C)n1c(NCCc2ccc(O)c(O)c2)nc2c1c(=O)n(C)c(=O)n2C (stereo not drawn) [Compound 11g, 7-(Sec-butyl)-8-((3,4-dihydroxyphenethyl)amino)-1,3-dimethyl-3,7-dihydro-1H-purine-2,6-dione] | > 1 | -4 | 10.2 ± 0.9 | 71 ± 1 % of Quercetin Response | – | –

— article PMC10377586 (Biomolecules, 2023)
